Read-outs that look alike come from different tables or passages of the source.

This passage reports AC50 results from patent US20250171438A1 (Agios Pharmaceuticals, Inc., priority 2022, published 2025).

For the test, the target named is T1, human PAH with the R408W mutation (Homo sapiens, UniProt P00439, R408W).
T1 construct: expressed in transfected cells
T1 sequence (P00439 1-452 R408W): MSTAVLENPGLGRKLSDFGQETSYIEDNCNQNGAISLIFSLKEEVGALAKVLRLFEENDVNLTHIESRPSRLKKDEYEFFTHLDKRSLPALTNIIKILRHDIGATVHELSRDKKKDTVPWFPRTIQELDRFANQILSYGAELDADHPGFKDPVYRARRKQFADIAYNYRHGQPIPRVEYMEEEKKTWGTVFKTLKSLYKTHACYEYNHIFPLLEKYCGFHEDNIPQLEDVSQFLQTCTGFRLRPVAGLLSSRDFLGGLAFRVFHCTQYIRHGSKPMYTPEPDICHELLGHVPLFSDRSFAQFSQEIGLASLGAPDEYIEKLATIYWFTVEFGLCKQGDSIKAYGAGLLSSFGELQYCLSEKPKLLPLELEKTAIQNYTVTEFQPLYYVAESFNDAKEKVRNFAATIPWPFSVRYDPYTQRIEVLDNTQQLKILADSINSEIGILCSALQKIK
In words: Cell Based Phenylalanine Flux Assay. Particulars: A375 cells expressing human R408W PAH, 13C-Tyrosine by LC-MS, average where tested multiple times, read-out: AC50.

In general, AC50 refers to the midpoint of the concentration-response curve, whichever way the signal moves. Consider `N#Cc1ccn2ncc(C(=O)N3CCc4[nH]cnc4[C@@H]3c3nc4c(F)cccc4s3)c2c1` [Example 1250, (R)-3-(4-(4-fluorobenzo[d]thiazol-2-yl)-4,5,6,7-tetrahydro-1H-imidazo[4,5-c]pyridine-5-carbonyl)pyrazolo[1,5-a]pyridine-5-carbonitrile], for which, for the setting “24 hrs compound incubation”, the AC50 was in the range of 1000 to 5000 nM.
Same read-out and setting: the result for `Cn1cc(-c2ncc(C(=O)N3CCc4[nH]cnc4[C@H]3c3nc4ccccc4s3)s2)cn1` [Example 1229] reads less than 500 nM; that for `CC(C)(C)CCC(=O)N1CCc2[nH]cnc2[C@@H]1c1nc2ccc(Br)cc2[nH]1` [Example 943, (R)-1-(4-(6-bromo-1H-benzo[d]imidazol-2-yl)-6,7-dihydro-1H-imidazo[4,5-c]pyridin-5(4H)-yl)-4,4-dimethylpentan-1-one], 1000 to 5000 nM.
Consider `CC(C)(F)c1ccc2c(C(=O)N3CCc4[nH]cnc4[C@H]3c3nc4c(F)cccc4s3)cnn2c1` [Example 1489, (S)-(4-(4-fluorobenzo[d]thiazol-2-yl)-6,7-dihydro-1H-imidazo[4,5-c]pyridin-5(4H)-yl)(6-(2-fluoropropan-2-yl)pyrazolo[1,5-a]pyridin-3-yl)methanone], for which the AC50 (24 hrs compound incubation) was 500 to 1000 nM.
As for `Cc1nc(-c2cnn(C)c2)oc1C(=O)N1CCc2[nH]cnc2[C@H]1c1nc2ccccc2s1` [Example 1376], the AC50 (24 hrs compound incubation) was less than 500 nM.
Same read-out and setting: the same measure for `CC(C)(O)c1ncc(C(=O)N2CC3(CC3)c3[nH]cnc3[C@@H]2c2nc3ccccc3s2)o1` [Example 1678, (R)-(4′-(benzo[d]thiazol-2-yl)spiro[cyclopropane-1,7′-imidazo[4,5-c]pyridin]-5′(1′H,4′H,6′H)-yl)(2-(2-hydroxypropan-2-yl)oxazol-5-yl)methanone]: 1000 to 5000 nM.
On to `O=C(Cc1nccs1)N1CCc2[nH]cnc2C1c1nc2ccccc2[nH]1` (stereo not shown), for which the AC50 (24 hrs with compound) is 1000 to 5000 nM.
“((4R,7R)-4-(benzo[d]thiazol-2-yl)-7-methyl-6,7-dihydro-1H-imidazo[4,5- [Example 1587]”: the half-maximal activity concentration (AC50) (24 hrs compound incubation) was 1000 to 5000 nM.
In the case of `Cn1cc(C(=O)N2CCc3[nH]cnc3[C@@H]2c2nc3c(F)cccc3s2)c(C(F)(F)F)n1` [Example 1614, (R)-(4-(4-fluorobenzo[d]thiazol-2-yl)-6,7-dihydro-1H-imidazo[4,5-c]pyridin-5(4H)-yl)(1-methyl-3-(trifluoromethyl)-1H-pyrazol-4-yl)methanone], the concentration at half-maximal activity (AC50) (24 hrs compound incubation) is less than 500 nM.
As to `O=C(c1cnc(-c2ccc(F)cn2)o1)N1CCc2[nH]cnc2[C@@H]1c1nc2ccccc2s1` [Example 1338, (R)-(4-(benzo[d]thiazol-2-yl)-6,7-dihydro-1H-imidazo[4,5-c]pyridin-5(4H)-yl)(2-(5-fluoropyridin-2-yl)oxazol-5-yl)methanone], the AC50 (24 hrs compound incubation) fell in the range of 1000 to 5000 nM.
In the case of `Cc1ncoc1C(=O)N1CCCc2[nH]cnc2[C@@H]1c1nc2ccccc2s1` [Example 2130, (R)-(4-(benzo[d]thiazol-2-yl)-7,8-dihydroimidazo[4,5-c]azepin-5(1H,4H,6H)-yl)(4-methyloxazol-5-yl)methanone], the AC50 (24 hrs compound incubation) was more than 5000 nM.
For `Cn1cc(-c2nc(C(F)F)c(C(=O)N3CCc4[nH]cnc4[C@H]3c3nc4ccccc4s3)o2)cn1` [Example 1799], for the setting “24 hrs compound incubation”, the concentration at half-maximal activity (AC50) is less than 500 nM.
As for `Cc1nn(C)cc1-c1nnc(C(=O)N2CCc3[nH]cnc3[C@H]2c2nc3ccccc3s2)o1` [Example 1925], the concentration at half-maximal activity (AC50) (24 hrs compound incubation) was less than 500 nM.
On the same count and under the same terms, the result for `O=C(c1oc(N2CCC(F)CC2)nc1C(F)F)N1CCc2[nH]cnc2[C@H]1c1nc2ccccc2s1` [Example 1707] reads less than 500 nM.
With `O=C(c1nnc(CCCN2CC(F)C2)o1)N1CCc2[nH]cnc2C1c1nc2ccccc2s1` (stereo not shown), the concentration at half-maximal activity (AC50) (24 hrs with compound) is more than 5000 nM.
Same read-out and setting: the result for `CC1CN(C(=O)c2cnn3cc(CN(C)C)ccc23)C(c2nc3ccccc3s2)c2nc[nH]c21` (stereo not shown) reads more than 5000 nM.
Take `O=C(c1nnc(-c2cn[nH]c2)o1)N1CCc2[nH]cnc2[C@H]1c1nc2ccccc2s1` [Example 1921]: under “24 hrs compound incubation”, the AC50 fell in the range of 500 to 1000 nM.
For `O=C(c1ocnc1-c1ccccc1)N1CCc2[nH]cnc2[C@@H]1c1nc2c(F)cccc2s1` [Example 2178, (R)-(4-(4-fluorobenzo[d]thiazol-2-yl)-6,7-dihydro-1H-imidazo[4,5-c]pyridin-5(4H)-yl)(4-phenyloxazol-5-yl)methanone], the half-maximal activity concentration (AC50) (24 hrs compound incubation) is more than 5000 nM.
For `Cc1nnc(C(=O)N2CC(C)c3[nH]cnc3C2c2nc3ccccc3s2)o1` (stereo not shown), the AC50 (24 hrs with compound) is more than 5000 nM.
In the case of `O=C(CC1CC1(F)F)N1CCc2[nH]cnc2[C@@H]1c1nc2ccccc2s1` (stereo partly drawn) [Example 1272, 1-((R)-4-(benzo[d]thiazol-2-yl)-6,7-dihydro-1H-imidazo[4,5-c]pyridin-5(4H)-yl)-2-(2,2-difluorocyclopropyl)ethenone], under “24 hrs compound incubation”, the AC50 was more than 5000 nM.
Same read-out and setting: the result for `N#Cc1nc(N2CCOCC2)oc1C(=O)N1CCc2[nH]cnc2[C@H]1c1nc2ccccc2s1` [Example 1705, (S)-5-(4-(benzo[d]thiazol-2-yl)-4,5,6,7-tetrahydro-1H-imidazo[4,5-c]pyridine-5-carbonyl)-2-morpholinooxazole-4-carbonitrile] reads 500 to 1000 nM; that for `O=C(c1nnc(-c2cn[nH]c2)o1)N1CCc2[nH]cnc2[C@@H]1c1nc2ccccc2s1` [Example 1922, (R)-(5-(1H-pyrazol-4-yl)-1,3,4-oxadiazol-2-yl)(4-(benzo[d]thiazol-2-yl)-6,7-dihydro-1H-imidazo[4,5-c]pyridin-5(4H)-yl)methanone], 1000 to 5000 nM; that for `O=C(c1nnc(-c2ccccn2)o1)N1CCc2[nH]cnc2[C@@H]1c1nc2ccc(F)cc2s1` [Example 1719, (R)-(4-(6-fluorobenzo[d]thiazol-2-yl)-6,7-dihydro-1H-imidazo[4,5-c]pyridin-5(4H)-yl)(5-(pyridin-2-yl)-1,3,4-oxadiazol-2-yl)methanone], 1000 to 5000 nM.
On to `O=C(CCc1nccs1)N1CCc2nc[nH]c2C1c1nc2cc(Br)ccc2s1` (stereo not shown), for which, under “24 hrs with compound”, the AC50 is more than 5000 nM.
Turning to `O=C(N1CCc2[nH]cnc2[C@@H]1c1nc2ccccc2s1)C(F)(F)C1(O)CCC1` [Example 1688, (R)-1-(4-(benzo[d]thiazol-2-yl)-6,7-dihydro-1H-imidazo[4,5-c]pyridin-5(4H)-yl)-2,2-difluoro-2-(1-hydroxycyclobutyl)ethanone], under “24 hrs compound incubation”, the half-maximal activity concentration (AC50) was in the range of 1000 to 5000 nM.
Same read-out and setting: the result for `O=C(c1cnc(-c2ccccn2)s1)N1CCc2[nH]cnc2[C@H]1c1nc2ccccc2s1` [Example 1205] reads less than 500 nM.
Same read-out and setting: the result for `N#Cc1ccn2ncc(C(=O)N3CCc4[nH]cnc4[C@H]3c3nc4c(F)cccc4s3)c2c1` [Example 1249, (S)-3-(4-(4-fluorobenzo[d]thiazol-2-yl)-4,5,6,7-tetrahydro-1H-imidazo[4,5-c]pyridine-5-carbonyl)pyrazolo[1,5-a]pyridine-5-carbonitrile] reads 500 to 1000 nM.
Regarding `O=C(c1ccsn1)N1CCc2[nH]cnc2[C@H]1c1nc2ccccc2[nH]1` [(S)-(4-(1H-benzo[d]imidazol-2-yl)-1,4,6,7-tetrahydro-5H-imidazo[4,5-c]pyridin-5-yl)(isothiazol-3-yl)methanone], the half-maximal activity concentration (AC50) (24 hrs with compound) lay within 1000 to 5000 nM.
On to `CC(F)(F)c1ncc(C(=O)N2CCc3[nH]cnc3[C@H]2c2nc3c(F)cccc3s2)s1` [Example 1513], for which, where the note is “24 hrs compound incubation”, the half-maximal activity concentration (AC50) is less than 500 nM.
Consider `Cc1nnc(C(=O)N2CCc3[nH]cnc3[C@H]2c2nc3cc(Br)ccc3[nH]2)s1` (single isomer, unassigned), for which the half-maximal activity concentration (AC50) (24 hrs with compound) lay in the range of 1000 to 5000 nM.
On the same count and under the same terms, the result for `O=C(C1CC1)N1CCc2[nH]cnc2C1c1nc2ccc(F)cc2s1` (stereo not shown) reads 1000 to 5000 nM.
